The results in this text go back to a melting point compilation (Tetko et al.; mined from patent text by program, amines drawn as free bases though some values may be those of a salt).

A value given as a limit tells only on which side of the number the result lay.

As to `NC(=O)CNCC(=O)NCCCO`, the melting point – broadly, the temperature of the solid-liquid transition – was 118 to 120 °C. As to `COc1cccc(N2CCCN(c3ccnc4sc(C(N)=O)c(N)c34)CC2)c1`, the melting point was in the range of 193 to 195 °C. To `C#CCOc1ccc(-c2nc3ccccc3o2)cc1` belongs 124 to 127 °C; to `CC(C)c1ccc(-c2cccc(-c3cccc(C(=O)O)c3)n2)cc1`, 215 to 216 °C; to `O=C(NCNc1c(Nc2cccnc2)c(=O)c1=O)c1ccc(Cl)cc1`, 174 to 176 °C.

In turn, `O=c1[nH]nnc2sccc12` had a melting point of 175 to 176 °C. In the case of `CCOC(=O)c1ccc(C#CC(O)c2cc(C(C)(C)C)cc(C(C)(C)C)c2O)cc1` (stereo not given), the melting point is 142 to 144 °C.

In turn, `COc1ccc(-c2cc(CN)c(=O)n(Cc3ccc(Cl)cc3)n2)cc1F` registered a melting point of 128 to 131 °C. To `O=Cc1c(F)cccc1Br` belongs 35 to 37 °C; to `CCN(C=CC(=O)c1cccnc1)CC`, 193 to 195 °C. To `C=CCNc1nc(NCC=C)c2scc(Br)c2n1` belongs 87 to 88 °C; to `CCCc1cc(Cl)c(OC(C(=O)O)c2ccccc2)c(C(C)=O)c1O` (stereo not given), 131 to 133 °C; to `O=c1c2c(Cc3ccccc3Cl)n[nH]c2c2cccnc2n1-c1cccc(OC(F)(F)F)c1`, 273 to 275 °C. `CCCCNC(=O)C(C)(C)n1cc(C)c(-c2ccccc2)n1`: the melting point was 53 to 57 °C. In turn, `CCOc1ccc(C(=O)Nc2c(Cl)cncc2Cl)c2c3ccccc3n(Cc3ccccc3)c12` displayed a melting point of 210 to 213 °C. Compound `CN(c1cccc2cc(C3=NCC(CC(=O)O)S3)[nH]c12)S(=O)(=O)c1nccs1` (stereo not given) yielded a melting point of 121 to 123 °C. `NC(=O)c1c(Cl)c(-c2ccccc2)n2c1CN(C(=O)Cc1cccs1)CC2` returned a melting point of 225 to 229 °C. As to `CCOC(=O)CNC(=O)[C@H](Cc1ccc(O)cc1)NC(=O)[C@H](CO)NC(=O)OCc1ccccc1`, the melting point was 166 to 169 °C. Turning to `COc1cc(O)c(C(=O)C=Cc2ccc3nc[nH]c3c2)c(OC)c1`, the melting point lay in the range of 147 to 149 °C. The compound `CNc1cc(Oc2cc(C(F)(F)F)nn2C)nc(Oc2cc(C(F)(F)F)nn2C)c1` gave a melting point of 118 °C. `CN(C)CCOc1c2c(nc3ccccc13)C(C)(C)OC2` displayed a melting point of 92 to 93 °C. To `c1cnc2ccc(Cn3cnc4ccc(-c5cn[nH]c5)nc43)cc2c1` belongs 214 to 216 °C. `COC(=O)Nc1nc(-c2ccccc2)c(-c2nc3ccccc3c(=O)n2-c2ccccc2)s1`: the melting point is > 275 °C. `CCCCCCc1oc(C=Cc2ccccc2)nc1CO` returned a melting point of 44 to 45 °C. To `O=C(O)c1ccc(-c2nc(-c3ccc(Oc4ccccc4)cc3)no2)cc1` belongs 278 to 279 °C; to `Cc1noc(-c2ccc(C(=O)N3Cc4cccn4Cc4ccccc43)cc2)n1`, 177 to 179 °C; to `O=S(=O)(c1ccc(F)cc1)n1ccc2ccccc21`, 135 to 137 °C. Consider `CCCC1Oc2cc(OC)c(Cl)c(Cl)c2C1=O` (stereo not given), for which the melting point was in the range of 90 to 92 °C. To `Cc1nc(S(=O)(=O)CC(N)=O)nc(C)c1Br` belongs 175 to 177 °C. To `O=c1[nH]c2cscc2c(=O)n1CCN1CCC(=C(c2ccc(F)cc2)c2ccc(F)cc2)CC1` belongs 204 to 206 °C; to `CCOC(=O)c1ccc(CCCOCCCCCCNCC(O)c2cc(Cl)c(N)c(Cl)c2)cc1` (stereo not given), 66 to 68 °C. On to `O=c1[nH]c2ccc3c(c2[nH]c1=O)CNCC3`, for which the melting point lay within 294 to 297 °C. For the compound `CCCCC(Cn1cnc([N+](=O)[O-])c1)c1ccc(Cl)cc1Cl` (stereo not given), the melting point lay within 67 to 69 °C.

As to `NC(=O)c1c(Cl)ccc(Br)c1Cl`, the melting point lay within 117 to 119 °C. Turning to `O=[N+]([O-])C1COc2cc3c(cc2C1c1ccccc1C1OCCCO1)OCO3` (stereo not given), the melting point amounted to 207 °C.

As for `O=C(NCc1cccs1)C1CC2C=CC1C2` (stereo not given), the melting point lay within 123 to 124 °C. To `Cc1cc(C)n2nc(OC(=S)N(C)C)cc2n1` belongs 216 to 217 °C.

As for `CCCCOC1c2ccccc2C(=O)N(CC2CC2)C1(/C=C/C(N)=O)CNC(=O)OC(C)(C)C` (stereo not given), the melting point was 198 to 199 °C.

As to `COC1(c2cccc(Sc3cc(C)c4c(ccc(=O)n4C)c3)c2)CCOCC1`, the melting point was 101 to 102 °C. In the case of `Clc1cccc(C(c2ccc3[nH]cnc3c2)n2ccnc2)c1` (stereo not given), the melting point was determined as 108 °C. To `Cc1ccc(C=C2SC(=S)N(CC(=O)O)C2=O)cc1` belongs 245 to 250 °C. With `COC(=O)c1cc(OCC(=O)O)cc(C(=O)OC)c1[N+](=O)[O-]`, the melting point lay within 151 to 152 °C. Consider `CC(=O)OCCc1cccc2c(-c3ccccc3)c([N+](=O)[O-])oc12`, for which the melting point fell in the range of 95 to 98 °C.

In the case of `CCNC(=O)c1ccccc1Nc1nc(Nc2cc3c(cc2OC)CCN(CC(=O)NC)CC3)ncc1Cl`, the melting point is 99 to 110 °C. To `CCOC(=O)N(c1cccc(C(F)(F)F)c1)c1ccccc1N=NC(NC(=O)CCl)(C(=O)OCC)C(=O)OCC` belongs 76 to 79 °C; to `CCC(=O)c1c(C(=O)C(C)C)c2ccc(C(N)=O)cc2n1Cc1ccccc1Cl`, 145 to 147 °C. To `COc1ccccc1OCC1NC(C)(C)C(C(=O)O)S1` (stereo not given) belongs 136 to 138 °C. For the compound `CCOCCOCCn1ccc2c1CC(c1ccccc1Cl)C1C(=O)NC(=O)C21` (stereo not given), the melting point fell in the range of 158 to 162 °C. To `COC(=O)CC(S)C(CC(C)C)C(=O)NC(Cc1ccccc1)C(N)=O` (stereo not given) belongs 64 to 66 °C; to `CCOC(=O)c1cc(OC)ccc1CCc1cc2cc(C#N)ccc2o1`, 92 to 93 °C. To `CC1(C)CCOC1(O)Cn1cncn1` (stereo not given) belongs 93 to 95 °C; to `CCCCOc1ccc(S(=O)(=O)NCCCCOc2ccc(-n3ccnc3)cc2)cc1`, 103 to 105 °C. With `N#Cc1c(Sc2ncc([N+](=O)[O-])s2)nsc1Sc1ncc([N+](=O)[O-])s1`, the melting point is 197 to 200 °C. To `COC(=O)C1=C(C)NC(C)=C(C(=O)OC)C1c1cc(Br)ccc1OCC(=O)NCCO[N+](=O)[O-]` belongs 166 to 167 °C.

Compound `COc1ccc(C)cc1NC(=O)Nc1ccc(N2CCN(c3ncccn3)CC2)cc1` yielded a melting point of 220 to 221 °C.

In turn, `CSc1ncc(-c2ccccc2)c(Cl)n1` showed a melting point of 99 °C.

`Cc1nc2cnccc2n1-c1ccc(O)cc1F`: the melting point turned out to be 294 °C.

In turn, `Cc1ccnc(-c2cccc(Br)n2)n1` registered a melting point of 127 °C. In turn, `O=C(O)c1cnn2c(C(F)F)cc(-c3ccc(C(F)(F)F)cc3)nc12` registered a melting point of 261 °C. To `COc1ccc(-c2cn3ccc4ccccc4c3n2)cc1` belongs 177 to 179 °C. The compound `COC(=O)C1=NC2=COc3ccc(C)cc3N2C1C(=O)O` (stereo not given) registered a melting point of 178 to 179 °C. To `COc1ccc(C=CC(O)C(O)C=Cc2ccc(OC)cc2)cc1` (stereo not given) belongs 145 to 146 °C. `CC1(C)N=C(Oc2ccnc(O)c2)c2cc(C#N)ccc2O1` came in with a melting point of 275 to 278 °C. As to `COc1cc(Nc2c(C#N)cnc3cc(-c4ccc(CN5CCN(CCO)CC5)o4)ccc23)c(Cl)cc1Cl`, the melting point lay in the range of 176 to 181 °C. To `CCOC(=O)C(N=C(c1ccccc1)c1cc(Cl)ccc1NC)C(=O)OCC` belongs 88 °C; to `Clc1ccc2c(c1)N=C(NCCn1ccnc1)c1ccccc1N2`, 168 to 170 °C.

`Clc1ccc(CNc2nc(-c3cccc(Cl)n3)nc3ccccc23)cc1` had a melting point of 187 to 190 °C. For the compound `CCOC(=O)c1cc(Cc2cccc3ccccc23)sc1NCC(C)C`, the melting point lay within 57 to 59 °C. In the case of `CC12CCC(=O)CC1CCC1C2CCC2(C)C(OC(=O)CCl)CCC12` (stereo not given), the melting point fell in the range of 135 to 136 °C.

As to `CC(C)c1nccc2c(C(C)C(=O)O)cccc12` (stereo not given), the melting point amounted to 138 °C. With `C=CCc1c(C)ccc(N2C(=O)c3ccccc3C2=O)c1O`, the melting point fell in the range of 178 to 180 °C. On to `COC1C(c2ccccc2)=C(c2ccc(S(C)(=O)=O)cc2)C1(C)C` (stereo not given), for which the melting point fell in the range of 130 to 132 °C. `OC(c1cccc(Br)n1)(C(F)(F)F)C(F)(F)F` came in with a melting point of 67 to 69 °C. To `CCCN(C)C(=O)N(C)C(=O)Nc1ccccc1` belongs 63 to 64 °C; to `Oc1ccc(-c2[nH]c3ccccc3c2Cn2ccnc2)cc1`, 245 to 247 °C; to `Cc1ccc(S(=O)(=O)N2[C@@H](CCC(=N)NO)CC[C@H]2c2ccc(F)cc2)cc1` (racemic), 134 °C. In turn, `NCCOc1cccc(CC(Nc2cc(-c3ccc(OCc4ccccc4)cc3)ncn2)C(=O)O)c1` (stereo not given) showed a melting point of 154 °C. To `NC(=O)c1ccc(F)c2c1CC(N(CCCc1c[nH]c3ccc(F)cc13)CC1CC1)CO2` (stereo not given) belongs 121 °C. To `O=C1c2ccccc2C(=O)N1CCCCc1nc[nH]n1` belongs 169 to 171 °C; to `c1ccc(OCCSCc2nnc(-c3ccc(OCc4ccncc4)cc3)o2)cc1`, 80 to 90 °C. For `COC(=O)c1cc(Cl)cc(CC=O)c1O`, the melting point was 49 to 59 °C.

Turning to `Nc1cc(CO)cc(Nc2c3ccccc3nc3occc23)c1`, the melting point is 236 to 237 °C. To `S=C(NCCc1c[nH]cn1)NCCN(Cc1ccc(Cl)c(Cl)c1)c1ccc(Br)cn1` belongs 72 to 78 °C; to `CCOC(=O)c1cnc2c(nc(C)n2C)c1Cl`, 85 to 90 °C; to `COc1nsc(SCOCC#CI)c1C#N`, 124 to 125 °C.

Turning to `CCCCc1nc2c(N)nc3ccc(OCCC4CCNCC4)cc3c2n1C`, the melting point is 210 to 212 °C. As for `CCOC(=O)c1ncn2c3cccc(Cl)c3c(=O)n(C)c12`, the melting point fell in the range of 248 to 254 °C. To `CCOC(Cc1ccc(OCc2nc(C3CC3)oc2C)c2ccsc12)C(=O)O` (stereo not given) belongs 153 to 154 °C; to `COc1ccc(C(=O)C(CC(=O)N[C@@H](Cc2ccccc2)C(=O)O)SC(C)=O)cc1F` (stereo not given in full), 140 to 146 °C. With `COc1cc(OCc2nc(-c3ccco3)oc2C)ccc1CO`, the melting point fell in the range of 117 to 118 °C.
